Laboratory results reported in paper PMC6934184, “Selective DNA-PKcs inhibition extends the therapeutic index of localized radiotherapy and chemotherapy” (The Journal of Clinical Investigation, 2019).

Target: T1, PLK1 (Homo sapiens, UniProt P53350)
T1 construct: purchased Thermo Fisher Scientific (Life Technologies) SelectScreen
Assay: SelectScreen Z'LYTE
Assay type: biochemical
How it was run: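 NU5455 was profiled across the SelectScreen Broad panel of kinase activity and binding assays. Z'LYTE reactions such as CSF1R ran at apparent Km ATP, while the Adapta CAMK1 assay used ATP listed as 10. Values are given as percent.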

T1 sequence (P53350 whole entry): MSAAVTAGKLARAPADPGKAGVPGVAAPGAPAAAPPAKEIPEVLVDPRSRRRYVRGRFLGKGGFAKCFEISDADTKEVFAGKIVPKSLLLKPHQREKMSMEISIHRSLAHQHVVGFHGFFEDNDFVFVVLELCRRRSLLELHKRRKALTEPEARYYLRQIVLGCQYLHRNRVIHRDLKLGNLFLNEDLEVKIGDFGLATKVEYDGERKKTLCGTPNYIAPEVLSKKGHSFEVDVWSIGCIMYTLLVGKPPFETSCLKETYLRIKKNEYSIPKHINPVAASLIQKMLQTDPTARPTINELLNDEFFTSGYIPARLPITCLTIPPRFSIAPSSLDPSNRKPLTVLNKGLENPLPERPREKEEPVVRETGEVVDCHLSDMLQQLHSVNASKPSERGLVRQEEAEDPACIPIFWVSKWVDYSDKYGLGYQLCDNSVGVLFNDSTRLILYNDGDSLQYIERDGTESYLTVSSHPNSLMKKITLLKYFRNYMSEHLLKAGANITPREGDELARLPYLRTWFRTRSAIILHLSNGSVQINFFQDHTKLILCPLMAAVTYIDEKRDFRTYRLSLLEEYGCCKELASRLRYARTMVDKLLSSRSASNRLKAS

CN(C(=O)CN1CCOCC1)c1ccc2sc3c(-c4cccc5c(=O)cc(N6CC7CCC(C6)O7)oc45)cccc3c2c1 [NU5455]
inhibition at 1 µM: 9.2%
